Data on 63 compounds can be found in a melting point compilation (Tetko et al.; mined from patent text by program, amines drawn as free bases though some values may be those of a salt).

As usually defined, the melting point is the temperature, or range, at which the solid turns liquid.

Take `CCOC(=O)c1cc(F)c(C2CNCC2NC(=O)OC(C)(C)C)cc1F` (stereo not drawn): the melting point fell in the range of 98 to 100 °C.
The result for `CNC(=C[N+](=O)[O-])NCCSCc1cc(CN2CCCC2)cs1` reads 109 to 111 °C; that for `CC(C)c1ccccc1N1C(=O)CS/C1=N\C(=O)Nc1ccc(-c2nnc(-c3ccc(OC(F)(F)C(F)(F)F)cc3)o2)cc1`, 244 to 247 °C; that for `Oc1ccc2nscc2c1`, 215 to 216 °C.
`O=C(NNCCc1ccc(O)cc1)OCc1ccccc1` gave a melting point of 94 to 97 °C.
In the case of `CC(CN1C(=O)C2(COc3cc4c(cc32)CCO4)c2ccccc21)OCc1ccccc1` (stereo not drawn), the melting point lay in the range of 45 to 47 °C.
The result for `Nc1cc(Cl)cc(Cl)c1C(=O)NCc1ccccc1Br` reads 163 to 167 °C.
The value for `O=C1NC(=O)C(c2cn3c4c(cccc24)C(O)CC3)=C1c1c[nH]c2ccccc12` (stereo not drawn) was 165 to 168 °C; that for `CC(C)(C)OC(=O)Nc1ccc(-c2ccccc2F)cc1NC(=O)CC(=O)c1cccc(-n2ccnc2)c1` was 50 to 58 °C; that for `CN(C)CCc1[nH]c2ccccc2c1CC(N)=O` was 114 to 117 °C.
The value for `Nc1cc(Oc2ccc3c(C(=O)Nc4ccc(F)c(C(F)(F)F)c4)cccc3c2)ncn1` was 224 to 225 °C; that for `CC(=O)OC1C(N2CCCCC2)CC2C3CCC4CCC(N5CCCCC5)CC4(C)C3CCC21C` (stereo not drawn) was 156 to 161 °C.
In turn, `COC(=O)COc1c(CCC(C)C)c(OC)cc(OC)c1C(=O)CCc1ccc(O)c(OC)c1` came in with a melting point of 89 to 90 °C.
The result for `CCCOc1ccc(S(=O)(=O)NCc2ccncc2)cc1-c1nc2cc3nc[nH]c3cc2c(=O)[nH]1` reads 189 to 190 °C; that for `O=C1NC(=O)c2c(Sc3ccc(Cl)cc3)c(Sc3ccc(Cl)cc3)c(Sc3ccc(Cl)cc3)c(Br)c21`, 164 to 169 °C; that for `O=C(O)c1ccc(/C=C/c2ccccc2-c2cccs2)cc1`, 208 to 210 °C.
Compound `CCOC(=O)C1=C(C)Nc2cc(=O)[nH]n2C1c1cccc(Cl)c1Cl` (stereo not drawn) yielded a melting point of 213 to 218 °C.
The result for `CCCCCCCCN1C(=O)NC2(CC(C)(CC)N(CCOC(=O)c3ccccc3)C(C)(CC)C2C)C1=O` (stereo not drawn) reads 123 to 124 °C; that for `CCOC(=O)c1cc(C)c2c(c1)CC(=O)N2`, 238 to 241 °C; that for `CC(C)c1ccccc1SC1=C(O)CC(CCCCC(=O)O)(c2ccccc2)OC1=O` (stereo not drawn), 145 to 146 °C.
The value for `Cc1cc(-c2cc(C(F)(F)F)n3ncc(-c4cccnc4)c3n2)ccc1C(F)(F)F` was 177 °C; that for `CCOc1ccc(C2(C(=O)O)CCC2)cc1` was 90 to 91 °C.
The result for `NS(=O)(=O)c1cc2ccc(O)cc2o1` reads 185 to 187 °C; that for `COc1cc(OC)nc(Sc2cccc(C)c2C(=O)O)n1`, 131 to 132 °C.
The compound `COc1cccc2sc(-c3ccc(C(C)(C)C)cc3)nc12` came in with a melting point of 90 to 91 °C.
The value for `COCc1nc2c(OC)ccc(C(=O)Cc3ccncc3)c2[nH]1` was 218 to 220 °C; that for `COC(=O)c1cn(C2CC2)c2cc(F)c(F)cc2c1=O` was 223 to 224 °C.
The result for `O=C1c2ccccc2C(=O)c2c(O)c3c(c(O)c21)CCCC3` reads 194 to 196 °C.
The value for `Nc1nnc(N2CCN(CCOc3ccccc3)CC2)[nH]1` was 131 to 133 °C.
Compound `CC(C)(CO)CCS(N)(=O)=O` registered a melting point of 75 to 76 °C.
The value for `Cc1c(NC(=O)c2ccc(OC[C@@H]3CCCO3)cc2)ccc2[nH]c(CNCC3CCOCC3)cc12` was 166 to 167 °C; that for `CCCCCCCCCCCCCCCC(=O)n1nnnc1C(F)(F)F` was 66 to 69 °C.
Consider `Cc1nc(-c2cccc(Nc3ccc(I)cc3N)c2)cs1`, for which the melting point was in the range of 151 to 152 °C.
The value for `NS(=O)(=O)c1nc2ccc(OCC(O)CO)cc2s1` (stereo not drawn) was 183 to 185 °C; that for `COc1ccc2[nH]cc(CCCN(C3CCC3)C3COc4c(F)ccc(C(N)=O)c4C3)c2c1` (stereo not drawn) was 151 to 158 °C; that for `COc1cc2c(cc1OC)[C@@H]1CN(C)CC[C@@H]1N=C2c1ccc(NC(C)=O)cc1` (relative stereo) was 173 to 175 °C.
The value for `O=C(O)C=Cc1cccc(Sc2c[nH]c3ccccc23)c1` was 165 to 167 °C.
The compound `CCOC(=O)N1CCC(Nc2ccc(Cl)cc2C(=O)c2ccccc2F)CC1` came in with a melting point of 112 to 114 °C.
The result for `COc1ccc(/C=C(\C#N)c2cc(OC)c(OC)c(OC)c2)cc1[N+](=O)[O-]` reads 158 to 159 °C.
The value for `O=C(O)c1c(O)cccc1OCCC(c1ccccc1)(c1ccccc1)c1ccccc1` was 167 to 168 °C; that for `COC(=O)C12CCC(C(=O)O)(CC1)CC2` was 169 to 173 °C; that for `CCOCc1nc2c(N)nc3ccccc3c2n1CC1(N(C(N)=O)C(C)C)CCCCC1` was 135 to 160 °C.
The value for `CCOC(=O)c1cncc(C(=O)O)c1` was 180 to 182 °C; that for `COc1ccc2c(c1)NC(C)(C)C=C2C` was 67 to 69 °C.
Consider `COc1ccc2c(c1)c(-c1cc3c(OC)ncnc3[nH]1)cn2C`, for which the melting point was determined as 184 °C.
`N#CC(N)=C(C#N)N=Cc1c(Cl)cc(C(F)(F)F)cc1Cl`: the melting point was in the range of 218 to 219 °C.
The value for `O=C(NC(=O)c1ccc(C(F)(F)F)cc1)Nc1ccc(Cl)cc1` was 260 °C; that for `O=C(O)CCC(=O)c1ccc(NC(=O)CCCl)cc1` was 181 to 182 °C; that for `CCOC(=O)C1=C(COCCNS(N)(=O)=O)NC(C)=C(C(=O)OC)C1c1ccccc1Cl` (stereo not drawn) was 150 to 152 °C.
For the compound `Cc1nnc2ccc(-c3ccsc3)nn12`, the melting point lay within 154 to 156 °C.
The result for `COC(=O)N(C(=O)CC(O)(Cn1cncn1)c1ccc(Cl)cc1Cl)C(=O)OC` (stereo not drawn) reads 155 to 156 °C; that for `CC1(COc2ccc([N+](=O)[O-])cc2)CC(=O)c2cc(O)c(C(C)(C)C)cc2O1` (stereo not drawn), 205 to 209 °C.
The value for `Cc1c(C(=O)O)cnn1-c1ccc(I)cc1` was 225 °C; that for `CCCCCCCCCCCCCCCCCCOC(=O)c1cc(C(=O)OCCCCCCCCCCCCCCCCCC)c(C(=O)O)cc1C(=O)O` was 133 to 137 °C; that for `CCCCCCCCCCCCc1nnn[nH]1` was 68 to 70 °C.
The value for `Cc1oc(-c2ccco2)nc1COc1ccc(COc2nn(-c3ccccc3)cc2C=O)cc1` was 148 to 149 °C.
The compound `C[C@]12CCC(=O)N[C@@H]1CCc1cc(Sc3ccc(F)cc3)ccc12` came in with a melting point of 179 to 181 °C.
The result for `Cc1cc(=O)c(C(=O)NS(C)(=O)=O)nn1-c1ccc(Cl)cc1` reads 225 to 227 °C.
The value for `COc1ccc(Sc2ncc(Cl)cn2)cc1` was 75 °C; that for `O=C(Cc1ccccc1Cl)Nc1ccc(C(=O)N2Cc3ccccc3Cc3ccccc32)cc1` was 191 to 194 °C.
The value for `COc1cccc(N(C)C)c1C(=O)NC(=O)Nc1cccc(C(F)(F)F)c1` was 180 °C; that for `CCC(=O)OCC(OC(=O)CC)C1OC(SC)C(OC(=O)CC)C1OC(=O)CC` (stereo not drawn) was 62 to 63 °C; that for `CC1CCC(C(=O)Nc2ccc(-c3ncc(-c4ccc(NC(=O)C5CCCCCC5)cc4)[nH]3)cc2)CC1` (stereo not drawn) was 244 to 246 °C.
